The source of these data is patent publication US11008293B2, “5-carboxamide-2-thiobarbituric acids and use thereof as medicaments” (FONDAZIONE ISTITUTO ITALIANO DI TECNOLOGIA, priority 2017, dated 2021).

The term IC50 denotes the concentration at which inhibition is half-maximal. Read a low IC50 as inhibition by little substance.

What all share (format): cell-based
One experiment relates to MCF7. Nature of the experiment: Antiproliferative activity on MCF7 cancer cells. Conditions: Homo sapiens.
In the next experiment the test system is DU145. Nature of the experiment: Antiproliferative activity on DU145 cancer cells. As to conditions: Homo sapiens, DU-145.
The next experiment relates to HeLa. The experiment in a line: Antiproliferative activity on HeLa cancer cells. As to conditions: Homo sapiens.
For the next experiment, the system named is A549. Nature of the experiment: Antiproliferative activity on A549 cancer cells. Conditions: Homo sapiens.

On to `COc1cc(NC(=O)c2c(O)n(-c3ccccc3)c(=S)n(-c3ccccc3)c2=O)cc(OC)c1O`, for which the IC50 amounted to 53.5 ± 1.9 µM in the experiment with MCF7, 26.7 ± 0.1 µM in the experiment with DU145, 18.1 ± 0.8 µM in the experiment with HeLa and 17.5 ± 1.1 µM in the experiment on A549.

`O=C(Nc1ccc(O)cc1)c1c(O)n(-c2ccccc2)c(=S)n(-c2ccccc2)c1=O`: the IC50 in the experiment with MCF7 turned out to be 66.1 ± 7.5 µM; in the experiment on DU145, 42.5 ± 7.7 µM; with HeLa, 42.9 ± 6.1 µM; with A549, 37.1 ± 3.7 µM.

In the case of `COc1cccc(NC(=O)c2c(O)n(-c3ccccc3)c(=S)n(-c3ccccc3)c2=O)c1`, the IC50 in the experiment on MCF7 worked out at 14 ± 0.9 µM; in the experiment on DU145 it was 12.5 ± 1.5 µM; in the experiment on HeLa, 8.5 ± 0.5 µM; in the experiment with A549, 6.9 ± 0.2 µM.

Consider `O=C(Nc1cccc(O)c1)c1c(O)n(-c2ccccc2)c(=S)n(-c2ccccc2)c1=O`, for which the IC50 worked out at 94.2 ± 3.1 µM with MCF7, 49.6 ± 2.7 µM in the experiment with DU145, 39.1 ± 0.7 µM with HeLa and 59.4 ± 6.1 µM with A549.
